“Also recorded” adds a separate entry of the source.
Legend:
[1] = tested on: F4 osteosarcoma tumor xenograft; assay: In vivo NIR imaging, side-by-side with free dye; set-up: species or system athymic nude mice; conditions: for clearance from the body, time: following the injection
Experimental: (§1) Four- to six-week-old male athymic nude mice (18-22 g) were housed and fed sterilized pellet chow and provided sterilized water. Animals were maintained in a pathogen-free mouse colony. The facility is accredited by the American Association for Laboratory Animal Care, and all experiments were performed in accordance with the guidelines of the Institutional Animal Care and Use Committee. Tumor cells were harvested near confluence by incubating them with 0.05% trypsin-EDTA. Cells were pelleted by centrifugation at 130×g for five minutes and resuspended in sterile phosphate-buffered saline (PBS). Tumors were induced in animals by subcutaneous injection of approximately one million tumor cells into the hind leg region of the mice. A total of 75 mice were used in this study.
(§2) The NIR-labeled retinoid agent was intraveneously (i.v.) injected into the tumor-bearing mice at a dose of 10 nmol for imaging. The animals were imaged from 1 to 9 days after the injection using an In-Vivo Multispectral System FX, a tandem (SPECT/CT) single photon emission computed tomography (SPECT) and computed tomography (CT) system and imaged with a positron emission tomography (PET) system.
Regions of interest were quantified from the in vitro and in vivo data using ImageJ (National Institutes of Health, USA). Data were analyzed using one-way (analysis of variance) ANOVA or general linear model (GLM). Data comparisons were illustrated in notched box-and-whisker plots. These plots provide the minimum, 25th percentile, median (central line), mean (+), 75th percentile and maximum.
The tumor mass was located in the left hind region of the mouse (FIG. 2A). There was no calcification of the tumor mass (FIG. 2B). […] To eliminate the potential well-established enhanced permeability and retention (EPR) effect of the imaging results, a side-by-side imaging comparison was performed to study and to directly compare the free dye (FIG. 2E to FIG. 2I) and compound 3 (FIG. 2J to FIG. 2M). The same intensity scale was used in this analysis. […] Finally, the merged free dye, RGD and CT images show the only high vasculature signal in the vicinity of the tumor (FIG. 2I). In contrast, the merged compound 3, RGD and CT images show both vasculature and RA (compound 3) signal intensity increases in the tumor region (FIG. 2N, yellow). All of the data were further analyzed at the animal population level.

[2] = tested on: human osteosarcoma SOSP-9607 cells; assay: Confocal microscopy cell binding/uptake; assay type: cell-based; conditions: 100 μm, 60 minutes at 37° C.
Experimental: (§3) The human colon (HT-29), nasal (CCL-30) and lung (A549) cancer cell lines were purchased from the American Type Culture Collection (ATCC, Manassas, Va.). Human osteosarcoma (F5M2, OS-9901, SOSP-S607, F4, CM319) and nasopharyngeal carcinoma cell lines (CNE-2) were generated in-house. The cells were cultured in Dulbecco's Modified Eagle Medium supplemented with high glucose and F12 nutrient (DMEM/F12, Invitrogen, Carlsbad, Calif.) with 10% fetal bovine serum (Hyclone, Logan, Utah) in a humidified incubator maintained at 37° C. with 5% CO2.
(§4) Cells were harvested, and the NIR-labeled retinoid agent or the free dye (100 μm) was added. The mixture was incubated for 60 minutes at 37° C. Cells were washed in PBS. Sytox Green in 95% ethanol was added, and cells were incubated for 15 minutes at 4° C. to fix them and stain their nuclei. Stained cells were then transferred to a slide and mounted for microscopic examination. Images were recorded by an Olympus confocal microscope. The microscope was equipped with an excitation (Ex) light source and emission (Em) filters to detect and separate the labeled retinoids (ex/em 785/810 nm) and cell nuclei (Ex/Em 488/510 nm) signals. Confocal image signals were recorded from one slice of a cell z-stack. Sytox green and NIR-labeled retinoid or NIR dye signals were pseudo-colored green (emission at 510 nm) and red (emission at 810 nm), respectively.
(§5) The uptake of NIR-labeled retinoid agent by human cancer cells was verified by confocal microscopy (FIG. 1A to 1H). […] The nuclear internalization was temperature-dependent (FIG. 1J and FIG. 1K). The signal intensity was stronger in cells incubated at 37° C. (FIG. 1I) than in those incubated at 4° C. (FIG. 1L) or the negative cells incubated at 37° C. (FIG. 1M, FIG. 1N, and FIG. 1O). These differences are statistically significant (FIG. 1P).

[3] = tested on: human nasopharyngeal cancer (CNE-2) cells; assay: Confocal microscopy cell binding/uptake; assay type: cell-based; conditions: 100 μm, 60 minutes at 37° C.
Experimental: as §3, §4, §5

[4] = tested on: human lung cancer (A549) cells; assay: Confocal microscopy cell binding/uptake; assay type: cell-based; conditions: 100 μm, 60 minutes at 37° C.
Experimental: as §3, §4, §5

[5] = tested on: human osteosarcoma F5M2 cells; assay: Confocal microscopy cell binding/uptake; assay type: cell-based; conditions: 100 μm, 60 minutes at 37° C.
Experimental: as §3, §4, §5

[6] = tested on: human osteosarcoma F4 cells; assay: Confocal microscopy cell binding/uptake; assay type: cell-based; conditions: 100 μm, 60 minutes at 37° C.
Experimental: as §3, §4, §5

[7] = tested on: human osteosarcoma OS-9901 cells; assay: Confocal microscopy cell binding/uptake; assay type: cell-based; conditions: 100 μm, 60 minutes at 37° C.
Experimental: as §3, §4, §5

[8] = tested on: human colon cancer (HT-29) cells; assay: Confocal microscopy cell binding/uptake; assay type: cell-based; conditions: 100 μm, 60 minutes at 37° C.
Experimental: as §3, §4, §5

[9] = 30 mg/day, stage I and II head and neck cancer patients; cited from earlier work
human cancer cells = assay: Confocal microscopy: effect of temperature and signal localisation; assay type: cell-based
Experimental: as §4, §5
The negative cells also show the minimum signal intensity (FIG. 1M and FIG. 1N).

[10] = tested on: human colon cancer xenograft; assay: Tumor-to-muscle and liver-to-tumor ratios over time; assay type: in vivo, athymic nude mice; conditions: for signal in the liver versus background/muscle level: 14 days post-injection, single 18.4 μg injection
Experimental: as §1
as §2, with “The animals were imaged from 1 to 9 days after the injection using an In-Vivo Multispectral” left out
[…] […] The imaging agent was initially concentrated in the liver after the injection, but it gradually redistributed from the liver to the tumor over time. […] The maximum TMR (2.7) was reached 6 days post-injection in some animals, after which it started to decrease.

[11] = tested on: human colon, lung, nasal cancer, and neuroblastoma xenografts; assay: In vivo NIR imaging of other xenografts; set-up: species or system athymic nude mice; conditions: across all four tumor xenografts
Experimental: as §1, §2
To confirm the findings in other cancer cell types, the RA agent was tested in human colon (FIG. 4A), lung (FIG. 4B), nasal (FIG. 4C) cancer, and neuroblastoma (FIG. 4 D) xenografts. […]

tumor xenograft = assay: Dose acceleration response (tumor-to-muscle ratio); assay type: in vivo, mice; conditions: injection dose increased from 0.03 to 0.125 mg, p>0.5270
Experimental: (§6) Tumor-bearing mice were divided into three groups for the dose acceleration study; they were injected with 0.03 mg, 0.06 mg, or 0.125 mg of the NIR-labeled retinoid agent that was equivalent to the non-labeled retinoid, respectively. The tumor-to-muscle ratio was calculated from the imaging data. The systemic toxicity was measured using control mice. The mice were treated with PBS (control), a low dose (0.1 mg/kg/week), or a dosage that was five times lower than that reported in published human clinical trials (0.6 mg/kg/week). The bodyweight was measured every other day, and the percentage gain in bodyweight was used as the toxicity indicator.
(§7) To test for a saturation effect of the target-specific biological agent, three groups of animal were injected with different doses of the retinoid agent. The tumor-to-muscle ratio was used to compare the dose response in the tumor. […] However, the higher dose was associated with a significant decrease in the gain of bodyweight (FIG. 7B).

CM319 osteosarcoma cells = assay: Confocal microscopy cell binding/uptake; assay type: cell-based, human
Experimental: as §3, §4

[12] = Systemic toxicity by bodyweight gain; assay type: in vivo, mice
Experimental: as §6, §7

## CC1(C)C(=CC=C2CCCC(C=CC3=[N+](CCCCCC(=O)[O-])c4ccc(S(=O)(=O)[O-])cc4C3(C)C)=C2Oc2ccc(S(=O)(=O)[O-])cc2)N(CCCCS(=O)(=O)[O-])c2ccc(S(=O)(=O)[O-])cc21.[Na+].[Na+].[Na+].[Na+] [IRDye800CW, reference compound]
[1]; after 24 hours
  optical signal in the animal: completely undetectable
[1]; after 24 hours, P<0.0001
  signal intensity (TBR), IRDye800CW group vs RA group: significantly lower
[1]
  clearance from the body, time: 24 h
[1]; listed as free dye
  clearance from the body, time: ≤ 24 h
[2]
  binding to cells (NIR signal, confocal image): no detectable signal
[3]
  binding to cells (NIR signal, confocal image): no detectable signal
[4]
  binding to cells (NIR signal, confocal image): no detectable signal
[5]
  binding to cells (NIR signal, confocal image): no detectable signal
[6]
  binding to cells (NIR signal, confocal image): no detectable signal
[7]
  binding to cells (NIR signal, confocal image): no detectable signal
[8]
  binding to cells (NIR signal, confocal image): no detectable signal

## CC1=C(/C=C/C(C)=C/C=C/C(C)=C\C(=O)O)C(C)(C)CCC1 [retinoid, isotretinoin]
[9]
  patients developing adverse effects: 49.7%

## CC1=C(/C=C/C(C)=C/C=C/C(C)=C/C(=O)NCCCCCCNC(=O)CCCCCN2/C(=C/C=C3\CCCC(/C=C/C4=[N+](CCCCS(=O)(=O)O)c5ccc(S(=O)(=O)O)cc5C4(C)C)=C3Oc3ccc(S(=O)(=O)O)cc3)C(C)(C)c3cc(S(=O)(=O)O)ccc32)C(C)(C)CCC1 [compound 3, RA-HN(CH2)6NH—IRdye 800]
Human cancer cells; 4° C.
  binding when incubated at 4° C.: minimum binding
Human cancer cells; 37° C. vs 4° C., statistically significant, listed as NIR-labeled retinoid agent
  signal intensity in cells incubated at 37° C. versus 4° C. or negative cells: stronger; also recorded: higher signal intensity was observed at 37 °C than at 4 °C
Human cancer cells; 37° C., confocal, listed as NIR-labeled retinoid agent
  localisation of retinoid signal in cells: not only detected in the cytoplasm but also in the nuclei; also recorded: localizes to the cell membrane and cytoplasm
[10]; 1 day post-injection
  liver-to-tumor ratio relative to tumor-to-muscle ratio: almost twice as high
[10]; listed as NIR-labeled retinoid agent
  signal in the liver versus background/muscle level: still higher than the background level
[10]; listed as retinoid analog imaging agent
  signal in the liver versus background/muscle level: had not returned to the muscle level
[10]; post-injection
  time at which liver-to-tumor and tumor-to-muscle ratios intersected: 3 days
[10]; single injection 18.4 μg per 25 grams of bodyweight, some animals
  maximum tumor-to-muscle ratio (TMR): 2.7
[11]
  tumor-to-background ratio: 2.15 to 2.74
[1]; 72 hours post-injection
  signal intensity in the liver and tumor: high signal intensity
[1]; 72 hours post-injection, single animal
  tumor-to-background ratio (TBR): 2.76
[1]; within the first 24 hours, P=0.6088
  signal intensity (TBR), IRDye800CW group vs RA group: no statistically significant difference
Tumor xenograft; listed as imaging agent
  tumor-to-muscle ratio, dose response: no statistically significant difference
Tumor xenograft; listed as retinoid agent
  tumor-to-muscle ratio, dose response: no significant difference
CM319 osteosarcoma cells
  binding to cells: strongly binds to all the tested human cancer cell lines except CM319 osteosarcoma cells
[2]
  binding to cells (NIR signal, confocal image): bound
[3]
  binding to cells (NIR signal, confocal image): bound
[4]
  binding to cells (NIR signal, confocal image): bound
[5]
  binding to cells (NIR signal, confocal image): bound
[6]
  binding to cells (NIR signal, confocal image): bound
[7]
  binding to cells (NIR signal, confocal image): bound
[8]
  binding to cells (NIR signal, confocal image): bound
[12]; high dose 0.6 mg/kg/week, p=0.0003 vs control, p=0.0001 vs low dose
  percentage of bodyweight gain vs untreated control and low dose group: significantly lower
[12]; low dose 0.1 mg/kg/week, p=0.0519
  percentage of bodyweight gain vs control group: no differences

From patent US20120244079A1, “TRACEABLE RETINOID ACID FOR IMAGING, DISEASE PREVENTION AND THERAPY” (BAYLOR COLLEGE OF MEDICINE, priority 2009, published 2012)
